Test results published in patent publication US12077503B2, “Substituted cyclic amides and their use as herbicides” (FMC CORPORATION, priority 2015, dated 2024).
Like-named read-outs stand apart in the source and are kept apart here.

Key:
Format in all cases: in vivo
[1] = system: ragweed (common ragweed, Ambrosia elatior); experiment: Test A postemergence; details: Ambrosia artemisiifolia, post-emergence, 240 h, postemergence; for pest or weed control at 125 g/ha: 125 g ai/ha, visual injury vs untreated controls after approx. 10 d, 0 = no effect, 100 = complete control, read-out: Ragweed plant response rating (0 to 100 scale); for pest or weed control at 500 g/ha: 500 g ai/ha, 0 to 100 scale, 0 is no effect, 100 is complete control, read-out: Ragweed plant response rating
In short: (§1)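 Seeds sprayed preemergence with a directed soil spray, or plants at 2 to 10 cm height and one- to two-leaf stage sprayed postemergence, with test chemicals in a non-phytotoxic solvent mixture containing surfactant, in loam soil–sand blend. Injury rated visually against untreated controls after about 10 d in greenhouse, 0 (no effect) to 100 (complete control).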

[2] = system: ryegrass, Italian (Italian ryegrass, Lolium multiflorum); experiment: Test A postemergence; details: Lolium multiflorum, post-emergence, 240 h, postemergence; for pest or weed control at 125 g/ha: 125 g ai/ha, visual injury vs untreated controls after approx. 10 d, 0 = no effect, 100 = complete control, read-out: Ryegrass, Italian plant response rating (0 to 100 scale); for pest or weed control at 500 g/ha: 500 g ai/ha, 0 to 100 scale, 0 is no effect, 100 is complete control, read-out: Ryegrass, Italian plant response rating
In short: as §1

[3] = system: wheat (Triticum aestivum); experiment: Test A postemergence; details: Triticum aestivum, post-emergence, 240 h, postemergence; for plant injury at 125 g/ha: 125 g ai/ha, visual injury vs untreated controls after approx. 10 d, 0 = no effect, 100 = complete control, read-out: Wheat plant response rating (0 to 100 scale); for plant injury at 500 g/ha: 500 g ai/ha, 0 to 100 scale, 0 is no effect, 100 is complete control, read-out: Wheat plant response rating
In short: as §1

[4] = system: Galium (catchweed bedstraw, Galium aparine); experiment: Test A postemergence; details: Galium, post-emergence, 240 h, postemergence; for pest or weed control at 125 g/ha: 125 g ai/ha, visual injury vs untreated controls after approx. 10 d, 0 = no effect, 100 = complete control, read-out: Galium plant response rating (0 to 100 scale); for pest or weed control at 500 g/ha: 500 g ai/ha, 0 to 100 scale, 0 is no effect, 100 is complete control, read-out: Galium plant response rating
In short: as §1

Kochia (Kochia scoparia) [5] = experiment: Test A postemergence; details: Bassia scoparia, post-emergence, 240 h, postemergence; for pest or weed control at 125 g/ha: 125 g ai/ha, visual injury vs untreated controls after approx. 10 d, 0 = no effect, 100 = complete control, read-out: Kochia plant response rating (0 to 100 scale); for pest or weed control at 500 g/ha: 500 g ai/ha, 0 to 100 scale, 0 is no effect, 100 is complete control, read-out: Kochia plant response rating
In short: as §1

[6] = system: ducksalad (Heteranthera limosa); experiment: Test B flooded paddy test; details: Heteranthera limosa, 250 g ai/ha, Flood; 0 to 100 scale where 0 is no effect and 100 is complete control; read-out: Ducksalad plant response rating
In short: (§2)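 Greenhouse paddy pots with 2-leaf stage plants received compound by direct addition to floodwater 3 cm deep, kept at that level. Scored visually at 13–15 d versus controls (0 no effect; 100 complete control).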

[7] = system: barnyardgrass (Echinochloa crus-galli); experiment: Test B flooded paddy test; details: Echinochloa crus-galli, 250 g ai/ha, Flood; 0 to 100 scale where 0 is no effect and 100 is complete control; read-out: Barnyardgrass plant response rating
In short: as §2

rice (Oryra sativa) = experiment: Test B flooded paddy test; details: Oryza sativa, 250 g ai/ha, Flood; 0 to 100 scale where 0 is no effect and 100 is complete control; read-out: Rice plant response rating
In short: as §2

[8] = system: sedge, umbrella (small-flower umbrella sedge, Cyperus difformis); experiment: Test B flooded paddy test; details: Cyperus difformis, 250 g ai/ha, Flood; 0 to 100 scale where 0 is no effect and 100 is complete control; read-out: Sedge, Umbrella plant response rating
In short: as §2

[9] = system: ragweed (common ragweed, Ambrosia elatior); experiment: Test A preemergence; details: Ambrosia artemisiifolia, pre-emergence, 240 h, preemergence, 0 to 100 scale where 0 is no effect and 100 is complete control, read-out: Ragweed plant response rating; for pest or weed control at 125 g/ha: 125 g ai/ha; for pest or weed control at 500 g/ha: 500 g ai/ha
In short: as §1

[10] = system: barnyardgrass (Echinochloa crus-galli); experiment: Test A preemergence; details: Echinochloa crus-galli, pre-emergence, 240 h, preemergence, 0 to 100 scale where 0 is no effect and 100 is complete control, read-out: Barnyardgrass plant response rating; for pest or weed control at 125 g/ha: 125 g ai/ha; for pest or weed control at 500 g/ha: 500 g ai/ha
In short: as §1

[11] = system: ryegrass, Italian (Italian ryegrass, Lolium multiflorum); experiment: Test A preemergence; details: Lolium multiflorum, pre-emergence, 240 h, preemergence, 0 to 100 scale where 0 is no effect and 100 is complete control, read-out: Ryegrass, Italian plant response rating; for pest or weed control at 125 g/ha: 125 g ai/ha; for pest or weed control at 500 g/ha: 500 g ai/ha
In short: as §1

[12] = system: pigweed (Amaranthus retroflexus); experiment: Test A preemergence; details: Amaranthus retroflexus, pre-emergence, 240 h, preemergence, 0 to 100 scale where 0 is no effect and 100 is complete control, read-out: Pigweed plant response rating; for pest or weed control at 125 g/ha: 125 g ai/ha; for pest or weed control at 500 g/ha: 500 g ai/ha
[13] = system: giant foxtail (Setaria faberii); experiment: Test A preemergence; details: Setaria faberi, pre-emergence, 240 h, preemergence, 0 to 100 scale where 0 is no effect and 100 is complete control, read-out: Foxtail, Giant plant response rating; for pest or weed control at 125 g/ha: 125 g ai/ha; for pest or weed control at 500 g/ha: 500 g ai/ha
In short: as §1

Kochia (Kochia scoparia) [14] = experiment: Test A preemergence; details: Bassia scoparia, pre-emergence, 240 h, preemergence, 0 to 100 scale where 0 is no effect and 100 is complete control, read-out: Kochia plant response rating; for pest or weed control at 125 g/ha: 125 g ai/ha; for pest or weed control at 500 g/ha: 500 g ai/ha
In short: as §1

[15] = visual injury rating, approximately 10 d

For `O=C1NC[C@H](c2cccc(I)c2)[C@H]1C(=O)Nc1ccccc1F` [Compound 1160], the pest or weed control at 125 g/ha [1] was 0%, the pest or weed control at 500 g/ha [1] was 0% and the pest or weed control at 125 g/ha [2] was 20%. For the same compound, the pest or weed control at 500 g/ha [2] was 20%, the plant injury at 125 g/ha [3] was 20% and the plant injury at 500 g/ha [3] was 50%. It also gave a pest or weed control at 125 g/ha [4] of 0%, a pest or weed control at 500 g/ha [4] of 60% and a pest or weed control at 125 g/ha (Kochia (Kochia scoparia) [5]) of 0%. It also gave a pest or weed control at 500 g/ha (Kochia (Kochia scoparia) [5]) of 20%, a pest or weed control at 250 g/ha [6] of 80% and a pest or weed control at 250 g/ha [7] of 0%. For the same compound, the pest or weed control at 250 g/ha (rice (Oryra sativa)) was 20%, the pest or weed control at 250 g/ha [8] was 0% and the pest or weed control at 125 g/ha ([9]; approx. 10 d) was 0%. For the same compound, the pest or weed control at 500 g/ha [9] was 0%, the pest or weed control at 125 g/ha ([10]; approx. 10 d) was 90% and the pest or weed control at 500 g/ha [10] was 90%. It also gave a pest or weed control at 125 g/ha ([11]; approx. 10 d) of 0%, a pest or weed control at 500 g/ha [11] of 0% and a pest or weed control at 125 g/ha ([12]; approx. 10 d) of 0%. It also gave a pest or weed control at 500 g/ha [12] of 20%, a pest or weed control at 125 g/ha ([13]; approx. 10 d) of 90% and a pest or weed control at 500 g/ha [13] of 90%. The pest or weed control at 125 g/ha (Kochia (Kochia scoparia) [14]; approx. 10 d) was 0% and the pest or weed control at 500 g/ha (Kochia (Kochia scoparia) [14]) was 50%.
For `Cc1cc([C@H]2CN(C)C(=O)[C@@H]2C(=O)Nc2ccccc2F)on1` [Compound 1195], the pest or weed control at 125 g/ha [1] was 0%, the pest or weed control at 500 g/ha [1] was 0% and the pest or weed control at 125 g/ha [2] was 0%. For the same compound, the pest or weed control at 500 g/ha [2] was 0%, the plant injury at 125 g/ha [3] was 0% and the plant injury at 500 g/ha [3] was 0%. The pest or weed control at 125 g/ha [4] was 0%, the pest or weed control at 500 g/ha [4] was 0% and the pest or weed control at 125 g/ha (Kochia (Kochia scoparia) [5]) was 0%. The pest or weed control at 500 g/ha (Kochia (Kochia scoparia) [5]) was 0%, the pest or weed control at 250 g/ha [6] was 0% and the pest or weed control at 250 g/ha [7] was 20%. It also gave a pest or weed control at 250 g/ha (rice (Oryra sativa)) of 20%, a pest or weed control at 250 g/ha [8] of 0% and a pest or weed control at 125 g/ha [9, 15] of 0%. For the same compound, the pest or weed control at 500 g/ha [9] was 0%, the pest or weed control at 125 g/ha [10, 15] was 0% and the pest or weed control at 500 g/ha [10] was 80%. The pest or weed control at 125 g/ha [11, 15] was 0%, the pest or weed control at 500 g/ha [11] was 0% and the pest or weed control at 125 g/ha [12, 15] was 0%. It also gave a pest or weed control at 500 g/ha [12] of 0%, a pest or weed control at 125 g/ha [13, 15] of 0% and a pest or weed control at 500 g/ha [13] of 40%. The pest or weed control at 125 g/ha (Kochia (Kochia scoparia) [14]; [15]) was 0% and the pest or weed control at 500 g/ha (Kochia (Kochia scoparia) [14]) was 0%.
With `Cc1c(F)cccc1NC(=O)[C@H]1C(=O)N(C)C[C@@H]1c1ccc(C(F)(F)F)nc1` [Compound 1197] the pest or weed control at 125 g/ha [1] was 50%, the pest or weed control at 500 g/ha [1] was 60% and the pest or weed control at 125 g/ha [2] was 30%. It also gave a pest or weed control at 500 g/ha [2] of 60%, a plant injury at 125 g/ha [3] of 50% and a plant injury at 500 g/ha [3] of 60%. The pest or weed control at 125 g/ha [4] was 60%, the pest or weed control at 500 g/ha [4] was 60% and the pest or weed control at 125 g/ha (Kochia (Kochia scoparia) [5]) was 70%. The pest or weed control at 500 g/ha (Kochia (Kochia scoparia) [5]) was 80%, the pest or weed control at 250 g/ha [6] was 100% and the pest or weed control at 250 g/ha [7] was 70%. For the same compound, the pest or weed control at 250 g/ha (rice (Oryra sativa)) was 0%, the pest or weed control at 250 g/ha [8] was 0% and the pest or weed control at 125 g/ha [9, 15] was 100%. The pest or weed control at 500 g/ha [9] was 100%, the pest or weed control at 125 g/ha [10, 15] was 100% and the pest or weed control at 500 g/ha [10] was 100%. For the same compound, the pest or weed control at 125 g/ha [11, 15] was 70%, the pest or weed control at 500 g/ha [11] was 70% and the pest or weed control at 125 g/ha [12, 15] was 80%. For the same compound, the pest or weed control at 500 g/ha [12] was 80%, the pest or weed control at 125 g/ha [13, 15] was 100% and the pest or weed control at 500 g/ha [13] was 100%. The pest or weed control at 125 g/ha (Kochia (Kochia scoparia) [14]; [15]) was 100% and the pest or weed control at 500 g/ha (Kochia (Kochia scoparia) [14]) was 100%.
`COc1cc(C(F)(F)F)ccc1[C@H]1CNC(=O)[C@@H]1C(=O)Nc1ccccc1F` [Compound 1202] gave a pest or weed control at 125 g/ha [1] of 0%, a pest or weed control at 500 g/ha [1] of 20% and a pest or weed control at 125 g/ha [2] of 0%. The pest or weed control at 500 g/ha [2] was 0%, the plant injury at 125 g/ha [3] was 0% and the plant injury at 500 g/ha [3] was 50%. For the same compound, the pest or weed control at 125 g/ha [4] was 0%, the pest or weed control at 500 g/ha [4] was 40% and the pest or weed control at 125 g/ha (Kochia (Kochia scoparia) [5]) was 30%. For the same compound, the pest or weed control at 500 g/ha (Kochia (Kochia scoparia) [5]) was 40%, the pest or weed control at 250 g/ha [6] was 100% and the pest or weed control at 250 g/ha [7] was 0%. For the same compound, the pest or weed control at 250 g/ha (rice (Oryra sativa)) was 0%, the pest or weed control at 250 g/ha [8] was 0% and the pest or weed control at 125 g/ha [9, 15] was 0%. The pest or weed control at 500 g/ha [9] was 90%, the pest or weed control at 125 g/ha [10, 15] was 90% and the pest or weed control at 500 g/ha [10] was 90%. It also gave a pest or weed control at 125 g/ha [11, 15] of 0%, a pest or weed control at 500 g/ha [11] of 60% and a pest or weed control at 125 g/ha [12, 15] of 0%. For the same compound, the pest or weed control at 500 g/ha [12] was 0%, the pest or weed control at 125 g/ha [13, 15] was 50% and the pest or weed control at 500 g/ha [13] was 90%. For the same compound, the pest or weed control at 125 g/ha (Kochia (Kochia scoparia) [14]; [15]) was 20% and the pest or weed control at 500 g/ha (Kochia (Kochia scoparia) [14]) was 60%.
